How the values were obtained:
H1650 lung cancer cells = experiment: Cell viability assay (MTT, IC50 determination); format: cell-based; settings: Homo sapiens, NCI-H1650, 48 hours after drug treatment, MTT
Procedure: (§1) 89(22): p. […] H1650 lung cancer cells were plated at 150,000 cells per well in a 12 well plate. Twenty-four hours after plating, cells were treated as described with increasing concentrations of drug and control. Forty-eight hours after drug treatment, cells were treated with 100 μL of 3-(4,5-Dimethylthiazol-2-yl)-2,5-diphenyltetrazolium bromide (MTT) and incubated for 2 hours at 37 C. The MTT solution was subsequently replaced with 300 μL of n-propyl alcohol and re-aliquoted to a 96 well plates. Spectrophotometric analysis of each solution was performed using a 96 well plate reader at 600 nm in triplicate.

naïve CD4 T cells = experiment: Treg induction from naïve CD4 T cells (Foxp3 expression); format: cell-based
Procedure: Example 30 has been tested for its ability to induce Treg from naïve CD4 T cells. […] Fifty thousand CD4 naïve cells (CD62Lhi, CD25 low, CD4 positive) were incubated with 2 ng/mL TGFβ, 1 ug/mL anti-CD3, 100 ng/mL IL-2, 50000 APCs per well and the compounds 10 μM, 5 μM and 2.5 μM concentrations. The cells were incubated for 3 days and then stained for CD4 and Foxp3 expression. Results were expressed as fold increase over the % induced in control (DMSO) wells (typically 20-25% Foxp3+). AKTi, a small molecule AKT inhibitor, was used as a positive control; it induced about a 4-fold increase. […] The effects of Example 30 on iTreg induction are amplified as the TGFβ concentration decreases.

A549luc cells = experiment: Colony formation (clonogenic) assay, A549luc; format: cell-based; settings: 7 days
Procedure: (§2) Protocol for clonogenic assay follows Sangodkar et al. J Clin Invest 2012; 122:2637-51.
(§3) Cell culture and staining: For both A549luc and H292 cells, 500 cells were seeded into each well of a 6-well plate and allowed to attach for 24 hours before drug treatment. The following day, cells were treated with either the appropriate dose of drug or an equivalent volume of DMSO (two replicates were treated for each condition). For each condition, depleted media was replaced with fresh media containing the equivalent drug dose four days after initial treatment. Cells were harvested either 7 (A549luc) or 8 (H292) days after initial treatment. Briefly, media was aspirated from each well and the cells were washed twice with ice-cold PBS, then plates were allowed to dry at room temperature for 4 hours. Cells were fixed for one hour in a fixing solution consisting of 10% methanol and 10% glacial acetic acid in distilled water, then stained overnight in 1% (w/v) crystal violet dissolved in methanol. The next day, staining solution was aspirated from the wells and plates were washed gently with distilled water to remove excess stain before colony counting. Colonies were imaged on a ChemiDoc XRS+ (Bio-Rad) and images were exported as 8-bit TIFF files. Colonies were counted using the Colony Counter plugin in ImageJ, with colony size defined as between 4 and 400 square pixels, and minimum circularity set at 0.6. Duplicate wells were averaged to obtain a single value for each condition. Results (number of colonies) for A549luc cells are shown in Table 2 and results (number of colonies) for H292 cells are shown in Table 3: […]

H292 cells = experiment: Colony formation (clonogenic) assay, H292; format: cell-based; settings: 8 days
Procedure: as §2, §3

EGFR-L858R/CCSP mice = experiment: In vivo lung cancer model; settings: i.p. 100 mg/kg every other day, two week treatment period, MRI; DMSO control 20% increase
Procedure: The in vivo lung cancer model is described in Politi et al., Genes Dev. Jun. 1, 2006 20: 1496-1510. EGFR-L858R/CCSP mice were fed doxycycline-impregnanted food pellets to induce tumor formation. After 8-12 weeks, mice were imaged in a Bruker 4.7T Biospec scanner to confirm lung nodule development. After tumor confirmation, the compound of Example 30 was prepared in DMSO (Sigma) and administered i.p. at 100 mg/kg every other day for two weeks. After treatment, the mice were re-imaged by MRI, and pre-treatment and post-treatment lung volumes were calculated by visible lung opacity present in each axial image using Osirix 4.1.1. DMSO control animals show a 20% increase in tumor volume over two week treatment period. Animals treated with the compound of Example 30 show a 60% decrease in tumor volume over two week treatment period.

alloreactive T cells = experiment: Suppression assay using induced Tregs; format: cell-based
[1] = tested on: BALB/c hearts transplanted into fully allogeneic B6 recipients; experiment: Heart allograft survival; format: in vivo, mice; settings: 100 mg/kg i.p., n=4, p<0.05 vs control; untreated rejected by day 8
Procedure: To test for a clinically relevant in vivo effect, BALB/c hearts were transplanted into fully allogeneic B6 recipients. While untreated animals rejected their grafts by day 8 n=4, the grafts in the mice treated with 100 mg/kg i.p. of Example 30 lasted 18 days n=4, p<0.05 vs control, a statistically and clinically significant effect.

[2] = Cell viability assay (MTT, IC50 determination); format: cell-based; settings: human, H1650 lung cancer cells
Procedure: as §1

SMILES	IC50 (H1650 lung cancer cells)	number of colonies (A549luc cells; 5 μM)	number of colonies (A549luc cells; 7.5 μM)	number of colonies (A549luc cells; 10 μM)	number of colonies (H292 cells; 5 μM)	number of colonies (H292 cells; 7.5 μM)	number of colonies (H292 cells; 10 μM)	also measured
O=S(=O)(NCCN1c2ccccc2Sc2ccc(Cl)cc21)c1ccc(Cl)cc1 [Example 27, 4-chloro-N-(2-(2-chloro-10H-phenothiazin-10-yl)ethyl)benzenesulfonamide]	20 µM							fold increase in iTreg over control (DMSO) wells (naïve CD4 T cells; at 5 μM, 3 days, 2 ng/mL TGFβ): 2 fold
O=S(=O)(NCCCN1c2ccccc2CCc2ccc(Cl)cc21)c1ccc(OC(F)(F)F)cc1 [Example 30, N-(3-(3-chloro-10,11-dihydro-5H-dibenzo[b,f]azepin-5-yl)propyl)-4-(trifluoromethoxy)benzenesulfonamide]	12.6 µM	116	111.5	67.5	95	74.5	61	decrease in tumor volume (EGFR-L858R/CCSP mice): 60%; fold increase in iTreg over control (DMSO) wells (naïve CD4 T cells; at 2.5 μM, 3 days, 2 ng/mL TGFβ): greater than 2 fold; upregulation of Foxp3 (naïve CD4 T cells; naïve polyclonal T cells treated with TGFβ and TCR transgenic T cells stimulated in vivo during costimulatory blockade): facilitated upregulation of Foxp3; suppressive capacity of iTreg induced with or without compound (% inhibition of maximal proliferation) (alloreactive T cells): equivalent suppressive capacity; heart graft survival [1]: 18 days
O=S(=O)(NCC(O)CN1c2ccccc2CCc2ccccc21)c1ccc(OC(F)(F)F)cc1 (centres unmarked) [Example 60, 4-Trifluoromethoxy-N-(3-(10,11-dihydro-5H-dibenzo[b,f]azepin-5-yl)-2-hydroxypropyl)benzenesulfonamide]	~15 µM	126.5	118.5	56	107	105	42	
O=S(=O)(NCCCN1c2ccccc2CCc2ccc(Cl)cc21)c1cnc(Cl)c(Br)c1 [Example 63, 5-Bromo-6-chloro-N-(3-(3-chloro-10,11-dihydro-5H-dibenzo[b,f]azepin-5-yl)propyl)pyridine-3-sulfonamide]								viability at 48 h, 20 µM ([2]; @ 20 μM): 65%
O=S(=O)(NC1CCCC(N2c3ccccc3CCc3ccccc32)C1)c1ccc(OC(F)(F)F)cc1 (centres unmarked) [Example 73, N-(3-(10,11-dihydro-5H-dibenzo[b,f]azepin-5-yl)cyclohexyl)-4-(trifluoromethoxy)benzenesulfonamide]		2	0	0	40.5	16.5	7	
O=S(=O)(NC[C@@H](O)CN1c2ccccc2CCc2ccccc21)c1ccc(OC(F)(F)F)cc1 [Example 74, (S)—N-(3-(10,11-dihydro-5H-dibenzo[b,f]azepin-5-yl)-2-hydroxypropyl)-4-(trifluoromethoxy)benzenesulfonamide]	~15 µM	135.5	118.5	96	85.5	65.5	46.5	
O=S(=O)(NC[C@H](O)CN1c2ccccc2CCc2ccccc21)c1ccc(OC(F)(F)F)cc1 [Example 75, (R)—N-(3-(10,11-dihydro-5H-dibenzo[b,f]azepin-5-yl)-2-hydroxypropyl)-4-(trifluoromethoxy)benzenesulfonamide]	~15 µM	133.5	105	63.5	109.5	80	47	
O=S(=O)(NCCCN1c2ccccc2CCc2ccccc21)c1cccnc1 [Example 89]								viability at 48 h, 40 µM ([2]; @ 40 μM): 50%
O=C(CCCN1CCC(O)(c2ccc(Cl)cc2)CC1)c1ccc(F)cc1 [Haloperidol, reference compound]								fold increase in iTreg (Foxp3+) over control (DMSO) wells (naïve CD4 T cells; control compounds, concentration not given, 3 days, 2 ng/mL TGFβ): did not induce a statistically significant increase

— patent US9540358B2, “Tricyclic compounds as anticancer agents” (ICAHN SCHOOL OF MEDICINE AT MOUNT SINAI, priority 2011, dated 2017)
